Results taken from ChEMBL document CHEMBL1629520, “Synthesis and optimization of antitubercular activities in a series of 4-(aryloxy)phenyl cyclopropyl methanols” (Eur J Med Chem, 2010).

Key:
Format in all cases: functional
[1] = tested on: Mycobacterium tuberculosis; assay: Antitubercular activity against RMF-resistant Mycobacterium tuberculosis clinical isolate2 after 30 days by agar microdilution method
[2] = tested on: Mycobacterium tuberculosis; assay: Antitubercular activity against RMF-resistant Mycobacterium tuberculosis clinical isolate1 after 30 days by agar microdilution method
[3] = tested on: Mycobacterium tuberculosis; assay: Antitubercular activity against extensively drug-resistant Mycobacterium tuberculosis clinical isolate after 30 days by agar microdilution method
[4] = tested on: Mycobacterium tuberculosis; assay: Antitubercular activity against multi drug-resistant Mycobacterium tuberculosis clinical isolate after 30 days by agar microdilution method

Measured: MIC

OC(c1ccc(OCc2ccc(OCCN3CCCCC3)cc2)cc1)C1CC1 (centres undefined)
12.5 µg/mL: all assays above
